# Test system: adult subjects with schizophrenia
# Test: BPRS total score, Clinical Study Three
# Type: in vivo, human
# Details: LOCF; for Change from Baseline in BPRS Total Score, Mean (SD) / Change from Baseline in BPRS Total Score, Median: Olanzapine 15 mg, ITT population
# Text: SECONDARY OBJECTIVES To assess the efficacy of bifeprunox in treating schizophrenia using the Positive Symptom sub-scale score of the PANSS, the Negative Symptom sub-scale score of the PANSS, the General Psychopathology sub-scale of the PANSS, Brief Psychiatric Rating Scale (BPRS) total score derived from the PANSS, BPRS psychosis score derived from the PANSS, the Clinical Global Impression Severity of Illness score (CGI-S), the Clinical Global Impression Improvement score (CGI-I), CGI-I responder rate, PANSS responder rate based on the PANSS total score, Calgary Depression Scale for Schizophrenia (CDSS), and Subject Satisfaction rating.
# There were four treatment arms in this study, approximately 144 subjects per arm. […] After completing the Single-Blind Placebo Lead-in Period of at least three days, bifeprunox-treated subjects were titrated from 0.25 mg up to 20 mg/day or 30 mg/day according to a standardized titration scheme over a seven- or eight-day period, respectively. When the assigned dose was reached, subjects were maintained at that dose for the remainder of the six week treatment period. […] Subjects were hospitalized (if not already inpatients) after eligibility for study entry was verified, starting from the Screening Visit until at least 10 days after Baseline. Subjects could be hospitalized longer than 10 days if considered medically necessary by the Investigator. Rating scale assessments for efficacy and abnormal movement disorders were done weekly except for Week 5. […] Subject satisfaction with study medication was assessed at Week 6.
smiles,measurement,setting,value
"Cc1cc2c(s1)Nc1ccccc1N=C2N1CCN(C)CC1 [Olanzapine, olanzapine, reference compound]","Change from Baseline in BPRS Total Score, Mean (SD)",Week 1,−5.6 (6.7)
same,"Change from Baseline in BPRS Total Score, Median",Week 1,−4
same,"Change from Baseline in BPRS Total Score, Mean (SD)",Week 2,−8.9 (8.2)
same,"Change from Baseline in BPRS Total Score, Median",Week 2,−8
same,"Change from Baseline in BPRS Total Score, Mean (SD)",Week 3,−11.4 (9.3)
same,"Change from Baseline in BPRS Total Score, Median",Week 3,−11
same,"Change from Baseline in BPRS Total Score, Mean (SD)",Week 4,−12.0 (9.8)
same,"Change from Baseline in BPRS Total Score, Median",Week 4,−11
same,"Change from Baseline in BPRS Total Score, Mean (SD)",Week 6/Endpoint,−13.2 (10.7)
same,"Change from Baseline in BPRS Total Score, Median",Week 6/Endpoint,−12
same,mean change (SD) from Baseline to Endpoint in BPRS total score,"olanzapine 15 mg, ITT",−13.2 (10.7)

# Reference: patent US20090068290A1, “BIFEPRUNOX DOSES FOR TREATING SCHIZOPHRENIA” (priority 2006, published 2009)
